Data as given in ChEMBL document CHEMBL1131894, “N-phenylalkyl-substituted tropane analogs of boat conformation with high selectivity for the dopamine versus serotonin transporter” (Bioorg Med Chem Lett, 1999).

Key:
[1] = biological target: T1, Sodium-dependent dopamine transporter (Rattus norvegicus, UniProt P23977); test: Displacement of [3H]mazindol from cocaine binding site on Dopamine transporter (DAT)
[2] = biological target: T1, Sodium-dependent dopamine transporter; test: Inhibition of [3H]dopamine uptake at striatal nerve endings by dopamine transporter
[3] = Selectivity of uptake of 5-HT to DA; type: functional
[4] = biological target: Sodium-dependent serotonin transporter (Rattus norvegicus, UniProt P31652); test: Inhibition of [3H]5-HT uptake at striatal nerve endings by serotonin transporter
Sodium-dependent serotonin transporter, sequence (P31652 whole entry): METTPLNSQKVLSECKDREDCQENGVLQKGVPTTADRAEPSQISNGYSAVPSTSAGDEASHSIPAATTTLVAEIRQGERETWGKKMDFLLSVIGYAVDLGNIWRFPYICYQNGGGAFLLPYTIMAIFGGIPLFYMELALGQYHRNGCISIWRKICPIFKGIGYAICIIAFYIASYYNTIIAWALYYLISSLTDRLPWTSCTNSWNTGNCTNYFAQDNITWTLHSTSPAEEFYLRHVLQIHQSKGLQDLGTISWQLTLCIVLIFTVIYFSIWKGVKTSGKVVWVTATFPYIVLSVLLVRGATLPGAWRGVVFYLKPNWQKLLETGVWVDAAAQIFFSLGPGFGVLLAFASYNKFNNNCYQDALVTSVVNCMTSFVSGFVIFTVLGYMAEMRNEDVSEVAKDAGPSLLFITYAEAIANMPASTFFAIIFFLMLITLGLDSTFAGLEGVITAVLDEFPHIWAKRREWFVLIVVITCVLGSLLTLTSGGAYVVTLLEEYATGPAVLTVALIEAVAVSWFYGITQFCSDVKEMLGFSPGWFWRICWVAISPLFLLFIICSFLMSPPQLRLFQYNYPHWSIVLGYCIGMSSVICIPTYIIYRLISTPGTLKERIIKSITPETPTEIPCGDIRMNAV

T1 sequence (P23977 whole entry): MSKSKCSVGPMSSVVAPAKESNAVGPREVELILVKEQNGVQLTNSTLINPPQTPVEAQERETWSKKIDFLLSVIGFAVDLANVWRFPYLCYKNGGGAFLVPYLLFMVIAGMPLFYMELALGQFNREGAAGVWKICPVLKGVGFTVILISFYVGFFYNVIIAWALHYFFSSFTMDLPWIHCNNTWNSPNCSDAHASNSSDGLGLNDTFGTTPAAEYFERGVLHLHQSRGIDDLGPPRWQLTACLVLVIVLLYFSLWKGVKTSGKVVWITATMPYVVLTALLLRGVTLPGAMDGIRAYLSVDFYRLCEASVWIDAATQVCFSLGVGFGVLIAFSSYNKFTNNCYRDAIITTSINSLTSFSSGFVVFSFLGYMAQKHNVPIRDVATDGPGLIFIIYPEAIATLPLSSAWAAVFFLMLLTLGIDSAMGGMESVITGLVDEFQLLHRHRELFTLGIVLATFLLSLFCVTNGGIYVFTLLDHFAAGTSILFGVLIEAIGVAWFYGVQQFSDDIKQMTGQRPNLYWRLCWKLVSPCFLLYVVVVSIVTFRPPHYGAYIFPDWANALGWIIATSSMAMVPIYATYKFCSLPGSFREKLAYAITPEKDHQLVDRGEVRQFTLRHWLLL

Structure (SMILES) | Ki [1] | Ki [2] | Selectivity [3] | Ki [4]
Fc1ccc(C2C3CC[C@H](C[C@H]2c2ccc(F)cc2)N3CCCCc2ccccc2)cc1 (some centres undefined) | 86.4 nM | 210 nM | 0.52 | 110 nM
Cc1ccc([C@@H]2C[C@H]3CCC(C2c2ccccc2)N3C)cc1 (some centres undefined) | 6 nM | 4.6 nM | 26 | 120 nM
Cc1ccc([C@@H]2C[C@H]3CCC(C2c2ccccc2)N3CCc2ccccc2)cc1 (some centres undefined) | 0.95 nM | 1.6 nM | 113 | 180 nM
Fc1ccc(C2C3CC[C@H](C[C@H]2c2ccc(F)cc2)N3Cc2ccccc2)cc1 (some centres undefined) | 260 nM | 170 nM | 2.9 | 490 nM
Fc1ccc(C2C3CC[C@H](C[C@H]2c2ccc(F)cc2)N3CCC(c2ccccc2)c2ccccc2)cc1 (some centres undefined) | > 7000 nM | > 10000 nM | – | > 20000 nM
Fc1ccc(OCCN2C3CC[C@@H]2C[C@@H](c2ccc(F)cc2)C3c2ccc(F)cc2)cc1 (some centres undefined) | 22 nM | 27 nM | 34 | 928 nM
CN1C2CC[C@@H]1C[C@@H](c1ccc(F)cc1)C2c1ccc(F)cc1 (some centres undefined) | 31 nM | 14 nM | 33 | 460 nM
Fc1ccc(C2C3CC[C@H](C[C@H]2c2ccc(F)cc2)N3CCCc2ccccc2)cc1 (some centres undefined) | 16 nM | 43 nM | 14 | 608 nM
Fc1ccc(C2C3CC[C@H](C[C@H]2c2ccc(F)cc2)N3CCc2ccccc2)cc1 (some centres undefined) | 10 nM | 26 nM | > 50 | > 1.3 nM
Fc1ccc(C2C3CCC(C[C@H]2c2ccc(F)cc2)N3)cc1 (some centres undefined) | 49 nM | 17 nM | 2.4 | 41 nM
